Results: article PMC8781869, “Thioester-Containing Benzoate Derivatives with α-Glucosidase Inhibitory Activity from the Deep-Sea-Derived Fungus Talaromyces indigoticus FS688” (Marine Drugs, 2021)

Experiments:
[1] = tested on: α-glucosidase from Saccharomyces cerevisiae; experiment: α-Glucosidase inhibition assay (pNPG substrate, absorbance at 405 nm); format: biochemical; details: for α-glucosidase inhibitory effect at a single concentration: at a concentration of 100 μM; for IC50: in vitro, PBS pH 7.0, 37 °C, triplicate, read-out: α-Glucosidase inhibitory activity IC50
Experimental: An […] were used to measure the circular dichroism (ECD) and the UV spectra, respectively. ECD and UV spectra were recorded at the range of 200–400 nm under N2 gas […]. IR spectra were recorded on a Shimadzu IR Affinity-1 spectrophotometer. All the NMR spectra were measured on a 600 MHz Bruker Avance-III HD spectrometer and the tetramethylsilane was used as an internal standard. HR-ESI-MS was measured on a Bruker maXis high-resolution mass spectrometer. A Shimadzu LC-20 AT (equipped with an SPD-M20A PDA detector) was used for the preparative separations. The ACE 5 PFP-C18 column (250 × 10.0 mm, 5 μm, 12 nm) was used for semi-preparative HPLC separation and the CHIRAL-MD (2)-RH column (250 × 10.0 mm, 5 μm) was used for chiral separation (Guangzhou FLM Scientific Instrument Co., Ltd, Guangzhou, China). The commercial silica gel (SiO2; 200–300 mesh; Qingdao Marine Chemical Plant, Qingdao, China) and Sephadex LH-20 gel (GE Healthcare Bio-Sciences ABSE-751, Uppsala, Sweden) were used for column chromatography. All solvents were of analytical grade (Guangzhou Chemical Regents Company, Ltd., Guangzhou, China). The natural sea salt was purchased from Guangdong Yueyan saltern. The α-glucosidase from Saccharomyces cerevisiae and p-nitrophenyl-α-d-glucopyranoside (p-NPG) used in bioassays were purchased from Sigma-Aldrich (St. Louis, MO, USA).
The method used for the α-glucosidase inhibitory activity assay was based on previously reported literature with slight modification. The pre-reaction mixture consisted of 130 μL of PBS (100 mM, pH 7.0), 30 μL of enzyme (1 U/mL) and 0.5 μL of the test compounds at different concentrations. After incubation at 37 °C for 10 min, 40 μL of pNPG was added and the mixture was further incubated at 37 °C for 15 min. Finally, the absorbance was measured at 405 nm on an automatic microplate reader. […] All experiments were carried out in triplicate.

[2] = tested on: α-glucosidase; design: method as in PMID 24955555; details: previously reported screening; cited from earlier work

α-glucosidase inhibitory effect at a single concentration [1] | IC50 [1] | SMILES | α-glucosidase inhibitor (qualitative) [2]
weak inhibitory effects | – | COc1c(C)c(C(=O)SC)c(O)c2c1OC(C(C)(C)O)C2 (stereo not drawn) [Compound 1, Eurothiocin C] | –
– | – | CSC(=O)c1c(C)cc2c(c1O)C[C@H](C(C)(C)O)O2 [Compound 7, eurothiocin A] | potential α-glucosidase inhibitor
weak inhibitory effects | > 100 µM | COc1cc(O)cc(C)c1C(=O)SC [Compound 6, Eurothiocin H] | –
weak inhibitory effects | > 100 µM | CSC(=O)c1c(C)cc(O)c(CC=C(C)C)c1O [Compound 3, Eurothiocin E] | –
– | 33.6 µM | CSC(=O)c1c(C)cc(O)c(C/C=C(\C)CO)c1O [Compound 4, Eurothiocin F] | –
– | 5.4 µM | CSC(=O)c1c(C)cc2c(c1O)CC(C(C)(C)OC1OC(CO)C(O)C(O)C1O)O2 (stereo not drawn) [Compound 2, Eurothiocin D] | –
– | 72.1 µM | CSC(=O)c1c(C)cc(O)c(CCC(C)(C)O)c1O [Compound 5, Eurothiocin G] | –
